Test results published in patent publication US5401512A, “Delayed release oral dosage forms for treatment of intestinal disorders” (priority 1991, dated 1995).

What was measured:
[1] = cited from earlier work; for Absorption before reaching the colon: oral administration, sulphapyridine and 5-ASA without the azo-bond
[2] = Total urinary excretion of 5-ASA and N-acetyl-5-ASA after single oral dose in seven healthy volunteers; type: in vivo, healthy volunteers (human); settings: 7 volunteers
Procedure: (§1) Each of the batches of coated granules were separately packed into size 00 hard gelatin capsules (LOK-CAP, Eli Lilly) in an amount of 400 mg granules per capsule. The capsules were then spray coated with […] per capsule of a coating solution of the following formula: […]
(§2) Seven healthy volunteers were then each given blind on three separate occasions a single dose consisting of (a) 8 tablets of enteric coated 500 mg sulphasalazine tablets, (b) 8 of the enteric coated capsules containing the 20% Eudragit coated 5-ASA granules, and (c) 8 of the enteric coated capsules containing the 25% Eudragit coated 5-ASA granules. The serum levels of 5-ASA and N-acetyl-5-ASA at various times following administration were measured together with the total urinary excretion of 5-ASA and N-acetyl-5-ASA. In each case the values are given to three significant figures with 0 representing less than 2 ng/ml.

[3] = Serum levels of 5-ASA and N-acetyl-5-ASA after single oral dose in seven healthy volunteers; type: in vivo, healthy volunteers (human); settings: 7 volunteers
Procedure: as §1
as §2, with “ng/ml. The following abbreviations are used:” for “ng/ml.”
Tmax =time for the maximum serum concentration in hours, median and interquartials ranges
Cmax =maximum serum concentration attained in ng/ml
Thalf =estimated biological half life of elimination
KE=estimated first order in elimination rate constant

| Mean urinary excretion of 5-ASA ([2]; 5-ASA) [ng/mL] | Mean urinary excretion of N-Ac-5-ASA ([2]; N-Ac-5-ASA) [ng/mL] | Thalf (estimated biological half life of elimination) of 5-ASA ([3]; 5-ASA) | Thalf (estimated biological half life of elimination) of N-Ac-5-ASA ([3]; N-Ac-5-ASA) | Compound | Pharmacologically active agent in treatment of colonic disease with SASP ([1]; Khan et al, The Lancet 1977) | Absorption before reaching the colon [1] |
| --- | --- | --- | --- | --- | --- | --- |
| – | – | – | – | Nc1ccc(O)c(C(=O)O)c1 [5-ASA, 5-amino-salicylic acid] | pharmacologically active agent | almost entirely absorbed from the small intestine before reaching the colon |
| 0 ± 0 | 170 ± 35 | 19.4 ± 12.9 | 60.1 ± 50.1 | O=C(O)c1cc(/N=N/c2ccc(S(=O)(=O)Nc3ccccn3)cc2)ccc1O [Sulphasalazine, Salicylazosulphapyridine] | – | only absorbed to a limited extent before reaching the colon |
| – | – | – | – | Nc1ccc(S(=O)(=O)Nc2ccccn2)cc1 [sulphapyridine] | – | almost entirely absorbed from the small intestine before reaching the colon |
